Source: patent US12653191B2, “Active compound combinations” (Bayer Aktiengesellschaft, priority 2020, dated 2026)
Like-named read-outs stand apart in the source and are kept apart here.

Legend:
Fusarium culmorum [1] = assay: in vitro-Test with fungal microorganisms, Method A (tables G1-G4); type: cell-based; conditions: Fusarium culmorum, alone, read-out: Efficacy
Description: (§1) Example: In Vitro-Test with Fungal Microorganisms
(§2) Wells of 96-well microtiter plates are filled with 10 μl of a preparation of test compound or compound combination in methanol+emulsifier alkylaryl-polyglycol-ether. Thereafter, the solvent is evaporated in a hood. At the next step, 100 μl of liquid potato dextrose medium is given into each well, that has been amended with an appropriate concentration of spores or mycelium suspension of the test fungus.
With the aid of a photometer, the extinction in all wells is measured at the wavelength of 620 nm.
The microtiter plates are incubated at 20° C. and 85% relative humidity. The inhibition of growth is determined again photometrically 3-5 days after the application. Efficacy is calculated in relation to the untreated control, 0% efficacy means fungal growth as high as in untreated control while 100% efficacy means no fungal growth is measured.
(§3) The data in tables A1 to A12, B1 to B14, C1 to C10, D1 to D8, E1 to E8, F1 to F11, G1 to G4, H1 to H4 and I1 to I5 were collected according to Method A. The data in tables A13 to A22, B15 to B18, C11 to C20, E9 to E16, F12 to F15, G5 to G15, H5 to H8, I6 to I11 and J1 to J11 were collected according to Method B.

Cordana musae [2] = assay: in vitro-Test with fungal microorganisms, Method A (tables E1-E8); type: cell-based
How it was run: (§4)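 Readout: extinction at 620 nm, measured at start and again 3-5 days later, giving efficacy versus untreated control (0% = control growth, 100% = no growth). Compounds were evaporated from methanol/emulsifier before adding potato dextrose medium with fungal spores or mycelium; incubation 20° C, 85% RH.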

Parastagonospora nodorum = assay: in vitro-Test with fungal microorganisms, Method B (tables H5-H8); type: cell-based; conditions: Parastagonospora nodorum, read-out: Efficacy
Description: as §1
as §2, with “30” for “10”, “200” for “100”, “growth” for “potato dextrose”, “given,” for “given into each well,”
With the aid of a photometer, the extinction in all wells is measured at the wavelength of 600 nm.
The microtiter plates are incubated for 3 to 7 days at 20° C. and 85% relative humidity. After the incubation inhibition of growth is determined photometrically. Efficacy is calculated in relation to the untreated control, 0% efficacy means fungal growth as high as in untreated control while 100% efficacy means no fungal growth is measured.
as §3

Botrytis cinerea = assay: in vitro-Test with fungal microorganisms, Method A (tables B1-B14); type: cell-based; conditions: Botrytis cinerea
How it was run: as §4

Cercospora beticola [3] = assay: in vitro-Test with fungal microorganisms, Method A (tables C1-C10); type: cell-based; conditions: Cercospora beticola, read-out: Efficacy %
How it was run: as §4

Colletotrichum coccodes = assay: in vitro-Test with fungal microorganisms, Method B (tables J1-J11); type: cell-based; conditions: Colletotrichum coccodes, read-out: Efficacy %; for inhibition of growth at 1 ppm: single active compound at 1 ppm
How it was run: (§5)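 Efficacy scale: 0% means growth equal to the untreated control, 100% means none detected. Compounds are dried from methanol with emulsifier before adding inoculated growth medium; incubation at 20° C., 85% relative humidity for 3 to 7 days precedes photometric inhibition readout.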

Cercospora beticola [4] = assay: in vitro-Test with fungal microorganisms, Method B (tables C11-C20); type: cell-based; conditions: Cercospora beticola, single compound, read-out: Efficacy %
How it was run: as §5

[5] = test system: Colletotrichum lindemuthianum; assay: in vitro-Test with fungal microorganisms, Method A (tables D1-D8); type: cell-based; conditions: Colletotrichum lindemuthianum, read-out: Efficacy %
How it was run: as §4

Diaporthe citri = assay: in vitro-Test with fungal microorganisms, Method A (tables F1-F11); type: cell-based; conditions: Diaporthe citri, read-out: Efficacy
How it was run: as §4

Alternaria alternate = assay: in vitro-Test with fungal microorganisms, Method A (tables A1-A12); type: cell-based, Alternaria alternata; conditions: Alternaria, applied alone, read-out: Efficacy %
How it was run: as §4

Fusarium culmorum [6] = assay: in vitro-Test with fungal microorganisms, Method B (tables G5-G15); type: cell-based; conditions: Fusarium culmorum, read-out: Efficacy
How it was run: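 Cpd in MeOH + alkylaryl-polyglycol-ether, solvent evaporated; liquid medium + fungal spores/mycelium added; OD600 read; 3–7 d, 20° C., 85% RH; growth inhibition by photometry, % efficacy vs untreated ctrl.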

Cordana musae [7] = assay: in vitro-Test with fungal microorganisms, Method B (tables E9-E16); type: cell-based; conditions: Neocordana musae, single active, read-out: Efficacy
How it was run: as §5

[8] = test system: Ustilago segetum var. avenae; assay: in vitro-Test with fungal microorganisms, Method A (tables I1-I5); type: cell-based; conditions: alone, 0.8 ppm; read-out: Efficacy %
How it was run: as §4

Alternaria alternata = assay: in vitro-Test with fungal microorganisms, Method B (tables A13-A22); type: cell-based; conditions: Alternaria alternata, single compound, 0.2 ppm; read-out: Efficacy
How it was run: as §5

[9] = test system: Ustilago segetum var. avenae; assay: in vitro-Test with fungal microorganisms, Method B (tables I6-I11); type: cell-based; conditions: 1 ppm; read-out: Efficacy %
How it was run: as §5

[10] = single active compound at 0.04 ppm

Structure (SMILES): CC(C)(C)C(O)(CCc1ccc(Cl)cc1)Cn1cncn1 (centres unmarked) [(1.021) tebuconazole, tebuconazole]
- inhibition of growth at 0.008 ppm (Fusarium culmorum [1]; 0.008 ppm): 8%
- inhibition of growth at 0.04 ppm (Fusarium culmorum [1]; 0.04 ppm): 21%
- inhibition of growth at 1 ppm (Fusarium culmorum [1]; 1.0 ppm): 98%
- inhibition of growth at 0.04 ppm (Cordana musae [2]; Neocordana musae, mixing partner alone, 0.04 ppm, read-out: Efficacy %): 0%
- inhibition of growth at 0.2 ppm (Cordana musae [2]; Neocordana musae, mixing partner alone, 0.2 ppm, read-out: Efficacy %): 29%
- Efficacy % (Cordana musae [2]; mixing partner alone, 1.0 ppm): 99%
- inhibition of growth at 0.008 ppm (Parastagonospora nodorum; 0.008 ppm): 0%
- inhibition of growth at 0.04 ppm (Parastagonospora nodorum): 0%
- inhibition of growth at 0.2 ppm (Parastagonospora nodorum; 0.2 ppm): 60%
- inhibition of growth at 1 ppm (Parastagonospora nodorum; 1 ppm): 100%
- inhibition of growth at 0.04 ppm (Botrytis cinerea; read-out: Efficacy): 0%
- inhibition of growth at 0.2 ppm (Botrytis cinerea; read-out: Efficacy): 37%
- inhibition of growth at 1 ppm (Botrytis cinerea; 1.0 ppm, read-out: Efficacy): 94%
- inhibition of growth at 0.008 ppm (Botrytis cinerea; alone, 0.008 ppm, read-out: Efficacy %): 0%
- inhibition of growth at 0.04 ppm (Botrytis cinerea; alone, read-out: Efficacy %): 0%
- inhibition of growth at 0.2 ppm (Botrytis cinerea; alone, read-out: Efficacy %): 45%
- inhibition of growth at 0.008 ppm (Cercospora beticola [3]; 0.008 ppm alone): 12%
- inhibition of growth at 0.04 ppm (Cercospora beticola [3]; 0.04 ppm alone): 32%
- inhibition of growth at 0.2 ppm (Cercospora beticola [3]; 0.2 ppm alone): 100%
- inhibition of growth at 0.04 ppm (Colletotrichum coccodes; 0.04 ppm): 0%
- inhibition of growth at 0.2 ppm (Colletotrichum coccodes; 0.2 ppm): 4%
- inhibition of growth at 0.008 ppm (Colletotrichum coccodes; applied alone, 0.008 ppm): 0%
- inhibition of growth at 0.04 ppm (Colletotrichum coccodes; applied alone, 0.04 ppm): 0%
- inhibition of growth at 0.2 ppm (Colletotrichum coccodes; applied alone, 0.2 ppm): 0%
- inhibition of growth at 0.008 ppm (Colletotrichum coccodes; single active compound at 0.008 ppm): 0%
- inhibition of growth at 0.04 ppm (Colletotrichum coccodes; [10]): 7%
- inhibition of growth at 1 ppm (Colletotrichum coccodes): 87%
- inhibition of growth at 0.008 ppm (Cercospora beticola [4]; 0.008 ppm): 4%
- inhibition of growth at 0.04 ppm (Cercospora beticola [4]): 1%
- inhibition of growth at 0.2 ppm (Cercospora beticola [4]; 0.2 ppm): 62%
- inhibition of growth at 0.008 ppm ([5]; mixing partner alone, 0.008 ppm): 32%
- inhibition of growth at 0.04 ppm ([5]; mixing partner alone, 0.04 ppm): 0%
- inhibition of growth at 0.2 ppm ([5]; mixing partner alone, 0.2 ppm): 17%
- inhibition of growth at 1 ppm ([5]; mixing partner alone, 1.0 ppm): 35%
- inhibition of growth at 0.008 ppm ([5]; single active at 0.008 ppm): 0%
- inhibition of growth at 0.04 ppm ([5]; single active at 0.04 ppm): 13%
- inhibition of growth at 0.2 ppm ([5]; single active at 0.2 ppm): 0%
- inhibition of growth at 1 ppm ([5]; single active at 1.0 ppm): 4%
- inhibition of growth at 0.008 ppm (Diaporthe citri; applied alone, 0.008 ppm): 28%
- inhibition of growth at 0.2 ppm (Diaporthe citri; applied alone, 0.2 ppm): 89%
- inhibition of growth at 0.008 ppm (Alternaria alternate; 0.008 ppm): 13%
- inhibition of growth at 0.04 ppm (Alternaria alternate; 0.04 ppm): 19%
- inhibition of growth at 0.2 ppm (Alternaria alternate; 0.2 ppm): 26%
- inhibition of growth at 1 ppm (Fusarium culmorum [6]; alone): 79%
- inhibition of growth at 0.04 ppm (Cordana musae [7]): 2%
- inhibition of growth at 0.2 ppm (Cordana musae [7]; 0.2 ppm): 25%
- inhibition of growth at 1 ppm (Cordana musae [7]): 71%

Structure (SMILES): O=C1C2CC=CCC2C(=O)N1SC(Cl)(Cl)Cl (centres unmarked) [(5.003) captan, captan]
- inhibition of growth at 0.8 ppm (Fusarium culmorum [1]; 0.8 ppm): 0%
- inhibition of growth at 4 ppm (Fusarium culmorum [1]; 4.0 ppm): 100%
- inhibition of growth at 20 ppm (Fusarium culmorum [1]; 20.0 ppm): 100%
- inhibition of growth at 4 ppm (Cordana musae [2]; Neocordana musae, mixing partner alone, read-out: Efficacy %): 0%
- inhibition of growth at 4 ppm (Cordana musae [2]; Neocordana musae, single substance, read-out: Efficacy %): 100%
- inhibition of growth at 20 ppm (Cordana musae [2]; Neocordana musae, single substance, 20.0 ppm, read-out: Efficacy %): 100%
- inhibition of growth at 0.8 ppm [8]: 0%
- inhibition of growth at 0.04 ppm (Parastagonospora nodorum): 0%
- inhibition of growth at 0.8 ppm (Botrytis cinerea; read-out: Efficacy): 0%
- inhibition of growth at 4 ppm (Botrytis cinerea; 4.0 ppm, read-out: Efficacy): 0%
- inhibition of growth at 20 ppm (Botrytis cinerea; read-out: Efficacy): 7%
- inhibition of growth at 0.8 ppm (Botrytis cinerea; alone, read-out: Efficacy %): 0%
- inhibition of growth at 20 ppm (Botrytis cinerea; alone, read-out: Efficacy %): 100%
- inhibition of growth at 0.8 ppm (Cercospora beticola [3]; 0.8 ppm alone): 0%
- inhibition of growth at 0.8 ppm (Cercospora beticola [3]; 0.8 ppm): 0%
- inhibition of growth at 4 ppm (Cercospora beticola [3]; 4.0 ppm): 100%
- inhibition of growth at 20 ppm (Cercospora beticola [3]; 20.0 ppm): 100%
- inhibition of growth at 0.2 ppm (Colletotrichum coccodes; 0.2 ppm): 0%
- inhibition of growth at 0.04 ppm (Colletotrichum coccodes; [10]): 53%
- inhibition of growth at 0.2 ppm (Colletotrichum coccodes; single active compound at 0.2 ppm): 0%
- inhibition of growth at 1 ppm (Colletotrichum coccodes): 0%
- inhibition of growth at 5 ppm (Colletotrichum coccodes; single active compound at 5 ppm): 100%
- inhibition of growth at 0.04 ppm (Cercospora beticola [4]): 0%
- inhibition of growth at 0.4 ppm (Cercospora beticola [4]; 0.4 ppm): 0%
- inhibition of growth at 5 ppm (Cercospora beticola [4]; 5 ppm): 100%
- inhibition of growth at 0.8 ppm ([5]; mixing partner alone, 0.8 ppm): 3%
- inhibition of growth at 4 ppm ([5]; mixing partner alone, 4.0 ppm): 100%
- inhibition of growth at 20 ppm ([5]; mixing partner alone, 20.0 ppm): 100%
- inhibition of growth at 0.8 ppm ([5]; single active at 0.8 ppm): 0%
- inhibition of growth at 4 ppm ([5]; single active at 4.0 ppm): 100%
- inhibition of growth at 20 ppm ([5]; single active at 20.0 ppm): 100%
- inhibition of growth at 0.8 ppm (Diaporthe citri; Table F10, 0.8 ppm alone): 18%
- inhibition of growth at 4 ppm (Diaporthe citri; Table F10, 4.0 ppm alone): 100%
- inhibition of growth at 20 ppm (Diaporthe citri; Table F10, 20.0 ppm alone): 100%
- inhibition of growth at 0.8 ppm (Diaporthe citri; applied alone, 0.8 ppm): 9%
- inhibition of growth at 4 ppm (Diaporthe citri; applied alone, 4.0 ppm): 99%
- inhibition of growth at 0.8 ppm (Diaporthe citri; single active, 0.8 ppm): 24%
- inhibition of growth at 4 ppm (Diaporthe citri; single active, 4.0 ppm): 88%
- inhibition of growth at 0.2 ppm (Alternaria alternata): 0%
- inhibition of growth at 20 ppm (Alternaria alternate; 20 ppm): 56%
- inhibition of growth at 0.04 ppm (Fusarium culmorum [6]; single active compound, 0.04 ppm): 0%
- inhibition of growth at 0.2 ppm (Fusarium culmorum [6]; single active compound, 0.2 ppm): 16%
- inhibition of growth at 1 ppm (Fusarium culmorum [6]; single active compound): 18%
- inhibition of growth at 5 ppm (Fusarium culmorum [6]; single active compound, 5 ppm): 100%
- inhibition of growth at 1 ppm [9]: 28%
- inhibition of growth at 0.04 ppm (Cordana musae [7]): 0%
- inhibition of growth at 1 ppm (Cordana musae [7]): 0%
- inhibition of growth at 5 ppm (Cordana musae [7]; 5 ppm): 100%
